For assay [1], the target named is T1, IDH1^R132H homodimer enzyme (Homo sapiens, UniProt O75874, R132H).
T1 construct: purchased not specified
Put plainly: NADPH depletion assay, IDH1 R132H. The class given is biochemical. The essentials:
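IDH1 R132H enzyme (8 nM as diluted) in Tris-HCl pH 7.6 with 10 mM MgCl2, 0.001% Triton X-100 and 4 mM β-mercaptoethanol is preincubated 15 min at RT with compound. Substrate mix (12 uM NADPH, 3.4 mM α-ketoglutarate) is added for 60 min; remaining NAD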

The target of assay [2] is T2, IDH1^R132C (Homo sapiens, UniProt O75874, R132C).
T2 construct: purchased not specified
Put plainly: NADPH depletion assay, IDH1 R132C. The assay is classed as biochemical. The essentials:
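IDH1 R132C (2 nM) preincubated 15 min at RT with compound in Tris-HCl pH 7.6/MgCl2 buffer, then 60 min RT with NADPH and 0.14 mM alpha-ketoglutarate. Remaining NADPH read by diaphorase/resazurin fluorescence (Ex544/Em590).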

Assay [3] deals with T3, IDH2^R172K (Homo sapiens, UniProt P48735, R172K).
T3 construct: purchased not specified
T3 sequence (P48735 40-452 R172K): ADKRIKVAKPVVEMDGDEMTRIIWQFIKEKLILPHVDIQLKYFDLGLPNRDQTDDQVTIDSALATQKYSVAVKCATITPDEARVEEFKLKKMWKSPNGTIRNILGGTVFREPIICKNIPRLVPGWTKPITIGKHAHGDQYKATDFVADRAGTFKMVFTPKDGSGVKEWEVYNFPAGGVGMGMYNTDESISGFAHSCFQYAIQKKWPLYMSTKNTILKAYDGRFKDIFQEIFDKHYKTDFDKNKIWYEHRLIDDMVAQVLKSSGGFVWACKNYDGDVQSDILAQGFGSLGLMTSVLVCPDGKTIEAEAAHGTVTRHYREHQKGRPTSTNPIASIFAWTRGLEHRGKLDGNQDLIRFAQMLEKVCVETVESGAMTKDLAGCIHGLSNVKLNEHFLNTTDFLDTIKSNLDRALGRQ
In words: NADPH depletion assay, IDH2 R172K. The class given is biochemical. The procedure, abridged:
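IDH2 R172K (16 nM) was preincubated 15 min at RT with compound (1:3 series from 1 mM in DMSO) in Tris pH 7.6/NaCl/MgCl2/Triton/β-mercaptoethanol. The reaction ran 60 min at RT with 0.55 mM alpha-ketoglutarate and NADPH (12 μM in the substrate mix). Remaining NADPH was read with diaphorase/resazurin fluorescence at Ex544/Em590.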

Assay [4] concerns U87MG_IDH1R132H. Put plainly: Cellular 2-HG production assay, U87-MG-IDH1 R132H. The class given is cell-based. The note with it: inhibition of 2HG production, 72 hr incubation, LC-MS/MS. The protocol: Cell lines HT-1080 (commercially available) and U87-MG-IDH1^R132H (obtained in analoy to the procedure reported in J. Mol. Neurosci 2013, 50, 165-71) are maintained in E-MEM 10% FCS and incubated at 37° C. in a humidified 5% CO2 atmosphere. Stably transfected U87-MG cell lines are also supplemented with 500 μg/mL G418.
Cells are seeded into 96 well black flat bottom plates at a density of 500 cells/well in 100 μL complete medium. After 24 hr the medium is replaced with 200 uL of fresh medium and compounds (dissolved into DMSO) are administrated to the cells using D300E Digital Dispenser (Tecan).
After 72 hr of incubation 100 uL from each well are collected and used for 2HG (R(−)-2-hydroxyglutarate) quantification.
Levels of 2-HG in cell culture media are determined by LC-MS/MS. Cell supernatants (100 μL/well) are treated with 1 M aqueous trichloroacetic acid containing 130 μM of the internal standard 2-HG-d3 (20 μL/well) in a 96-well plate.
The plates are sealed, mildly vortexed for 60 minutes, centrifuged at 4,000 RPM for 15 minutes, placed in a refrigerated autosampler taking care not to shake them, and aliquots of the upper part of the samples are directly injected in the chromatographic system. Calibration standards are obtained by ten fold dilution of aqueous 2-HG stock solutions with blank cell culture medium and denatured exactly in the same way as described above for samples. Samples and standards are assayed for 2-HG by reversed phase chromatography on a C18 column eluted with aqueous 0.15% formic acid and briefly washed with 90% methanol at the end of the run. 2-HG is determined by negative ion electrospray ionization with the internal standard method on a triple quadrupole mass spectrometer monitoring the MRM transitions 147>129 (2-HG) and 150>132 (2-HG-d3). 2-HG inhibition was calculated by comparing treated versus control data using Assay Explore (Symyx) software, with IC50 determined using a sigmoidal fitting algorithm.

Molecules are shown by their SMILES.

For orientation: IC50 means the concentration that gives 50% inhibition. High values mean weaker potency, low ones greater potency.

T1 sequence (O75874 whole entry R132H): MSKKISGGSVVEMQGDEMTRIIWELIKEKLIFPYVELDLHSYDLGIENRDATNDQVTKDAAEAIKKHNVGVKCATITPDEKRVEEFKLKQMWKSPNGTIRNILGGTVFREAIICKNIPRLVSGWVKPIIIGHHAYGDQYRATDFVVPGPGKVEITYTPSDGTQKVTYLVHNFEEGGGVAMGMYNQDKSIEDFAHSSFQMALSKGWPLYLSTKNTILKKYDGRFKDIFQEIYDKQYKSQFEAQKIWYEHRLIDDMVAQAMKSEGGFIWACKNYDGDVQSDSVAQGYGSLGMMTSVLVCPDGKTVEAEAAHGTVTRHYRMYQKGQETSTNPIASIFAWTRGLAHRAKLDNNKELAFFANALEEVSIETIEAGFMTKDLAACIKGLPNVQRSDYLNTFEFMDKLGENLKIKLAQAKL
T2 sequence (O75874 whole entry R132C): as the sequence (O75874 whole entry R132H) above, with H132C counted along it

On to `C[C@H](Nc1ncc2ccc(=O)n(CC(C)(C)C)c2n1)c1ccc(-c2ccnc(F)c2)cc1` [cpd 132, 8-(2,2-dimethylpropyl)-2-({(1S)-1-[4-(2-fluoropyridin-4-yl)phenyl]ethyl}amino)pyrido[2,3-d]pyrimidin-7(8H)-one], for which the IC50 was 194 nM in assay [1], 124 nM in assay [2], 6110 nM in assay [3] and 3220 nM in assay [4].
Regarding `C[C@H](Nc1ncc2ccc(=O)n(CC(C)(C)C)c2n1)c1ccc(-c2ccccc2C#N)cc1` [cpd 134, 4′-[(1S)-1-{[8-(2,2-dimethylpropyl)-7-oxo-7,8-dihydropyrido[2,3-d]pyrimidin-2-yl]amino}ethyl]biphenyl-2-carbonitrile], the IC50 in assay [1] is 152 nM; in assay [2], 61 nM; in assay [3] it was 6110 nM; in assay [4] it was 874 nM.
Taken in the same sequence, the figures for `C[C@H](Nc1ncc2ccc(=O)n(CC(C)(C)C)c2n1)c1cc2cc(Cl)ccc2[nH]c1=O` [cpd 50, 2-{[(1S)-1-(6-chloro-2-oxo-quinolin-3-yl)ethyl]amino}-8-(2,2-dimethylpropyl)pyrido[2,3-d]pyrimidin-7(8H)-one] were 68 nM, 38 nM, 2510 nM and 2530 nM.
With `C[C@H](Nc1ncc2ccc(=O)n(CC(C)(C)C)c2n1)c1ccc(-c2cnn(C)c2)cc1` [cpd 130, 8-(2,2-dimethylpropyl)-2-({(1S)-1-[4-(1-methyl-1H-pyrazol-4-yl)phenyl]ethyl}amino)pyrido[2,3-d]pyrimidin-7 (8H)-one], the IC50 in assay [1] was found to be 180 nM; in assay [2] it was 93 nM; in assay [3], 5030 nM; in assay [4] it was 4840 nM.
Taken in the same sequence, the figures for `C[C@H](Nc1ncc2ccc(=O)n(Cc3c(F)cccc3F)c2n1)c1ccc(CN2CCC(F)(F)CC2)cc1` [cpd 99, 8-(2,6-difluorobenzyl)-2-{[(1S)-1-{4-[(4,4-difluoropiperidin-1-yl)methyl]phenyl}ethyl]amino}pyrido[2,3-d]pyrimidin-7(8H)-one] were 201 nM, 132 nM, 3630 nM and 1380 nM.
The matching figures for `C[C@H](Nc1ncc2ccc(=O)n(CC(C)(C)CO)c2n1)c1ccc2ccccc2c1` [cpd 38, 8-(3-hydroxy-2,2-dimethylpropyl)-2-{[(1S)-1-(naphthalen-2-yl)ethyl]amino}pyrido[2,3-d]pyrimidin-7(8H)-one]: 137 nM, 67 nM, 7510 nM and 2640 nM.
Taken in the same sequence, the figures for `CC(C)Cn1c(=O)ccc2cnc(N[C@@H](C)c3ccc(CN4CCC(F)(F)CC4)cc3)nc21` [cpd 104, 2-{[(1S)-1-{4-[(4,4-difluoropiperidin-1-yl)methyl]phenyl}ethyl]amino}-8-(2-methylpropyl)pyrido[2,3-d]pyrimidin-7(8H)-one] were 276 nM, 121 nM, 5130 nM and 1770 nM.
For `C[C@H](Nc1ncc2ccc(=O)n(CC(C)(C)C)c2n1)c1ccc2ccccc2c1` [cpd 36, 8-(2,2-dimethylpropyl)-2-{[(1S)-1-(naphthalen-2-yl)ethyl]amino}pyrido[2,3-d]pyrimidin-7(8H)-one], the IC50 in assay [1] turned out to be 178 nM; in assay [3], 6540 nM; in assay [4], 4040 nM.
Take `C[C@H](Nc1ncc2ccc(=O)n(CC3CCC3)c2n1)c1ccc(CN2CCC(F)(F)CC2)cc1` [cpd 109, 8-(cyclobutylmethyl)-2-{[(1S)-1-{4-[(4,4-difluoropiperidin-1-yl)methyl]phenyl}ethyl]amino}pyrido[2,3-d]pyrimidin-7(8H)-one]: the IC50 in assay [1] was 334 nM; in assay [2], 218 nM; in assay [3] it was 5680 nM; in assay [4], 1810 nM.
Taken in the same sequence, the figures for `C[C@H](Nc1ncc2ccc(=O)n(CC3CCCCC3)c2n1)c1ccc(CN2CCC(F)(F)CC2)cc1` [cpd 113, 8-(cyclohexylmethyl)-2-{[(1S)-1-{4-[(4,4-difluoropiperidin-1-yl)methyl]phenyl}ethyl]amino}pyrido[2,3-d]pyrimidin-7(8H)-one] were 367 nM, 282 nM, 5510 nM and 2540 nM.
As for `C[C@H](Nc1ncc2ccc(=O)n(CC(C)(C)CO)c2n1)c1ccc(-c2ccsc2)cc1` [cpd 136, 8-(3-hydroxy-2,2-dimethylpropyl)-2-({(1S)-1-[4-(thiophen-3-yl)phenyl]ethyl}amino)pyrido[2,3-d]pyrimidin-7 (8H)-one], the half-inhibitory concentration (IC50) is 122 nM in assay [1], 54 nM in assay [2] and 2910 nM in assay [4].
Taken in the same sequence, the figures for `Cc1ccccc1Cn1c(=O)ccc2cnc(N[C@@H](C)c3ccc(CN4CCC(F)(F)CC4)cc3)nc21` [cpd 112, 2-{[(1S)-1-{4-[(4,4-difluoropiperidin-1-yl)methyl]phenyl}ethyl]amino}-8-(2-methylbenzyl)pyrido[2,3-d]pyrimidin-7(8H)-one] were 190 nM, 178 nM and 1610 nM.
Taken in the same sequence, the figures for `C[C@H](Nc1ncc2ccc(=O)n(Cc3c(F)cccc3F)c2n1)c1ccc(C(=O)N2CCC(F)(F)CC2)cc1` [cpd 77, 8-(2,6-difluorobenzyl)-2-{[(1S)-1-{4-[(4,4-difluoropiperidin-1-yl)carbonyl]phenyl}ethyl]amino} pyrido[2,3-d]pyrimidin-7(8H)-one] were 207 nM, 209 nM and 3030 nM.
The matching figures for `C[C@@H]1CN(Cc2ccc([C@H](C)Nc3ncc4ccc(=O)n(CC(C)(C)C)c4n3)c(F)c2)C[C@H](C)O1` [cpd 151, 2-{[(1S)-1-(4-{[(2R,6S)-2,6-dimethylmorpholin-4-yl]methyl}-2-fluorophenyl)ethyl]amino}-8-(2,2-dimethylpropyl)pyrido[2,3-d]pyrimidin-7(8H)-one]: 95 nM, 20 nM and 321 nM.
As for `C[C@H](Nc1ncc2ccc(=O)n(CC(C)(C)C#N)c2n1)c1ccc2ccccc2c1` [cpd 129, 2,2-dimethyl-3-[2-{[(1S)-1-(naphthalen-2-yl)ethyl]amino}-7-oxopyrido[2,3-d]pyrimidin-8(7H)-yl]propanenitrile], the IC50 in assay [1] was 197 nM; in assay [2] it was 98 nM; in assay [3], 6680 nM; in assay [4], 3840 nM.
For `C[C@H](Nc1ncc2ccc(=O)n([C@@H](C)C(C)(C)C)c2n1)c1ccc(CN2CCCC(F)(F)C2)cc1` [cpd 69, 2-{[(1S)-1-{4-[(3,3-difluoropiperidin-1-yl)methyl]phenyl}ethyl]amino}-8-[(2S)-3,3-dimethylbutan-2-yl]pyrido [2,3-d]pyrimidin-7(8H)-one], the half-inhibitory concentration (IC50) in assay [1] was determined as 36 nM; in assay [2], 22 nM; in assay [4] it was 78 nM.
Taken in the same sequence, the figures for `CC(Nc1ncc2ccc(=O)n(CC(C)(C)C)c2n1)c1ccc(C(=O)NC2CCC(F)(F)CC2)c(Cl)c1` (stereo not shown) [cpd 82, 2-chloro-N-(4,4-difluorocyclohexyl)-4-(1-{[8-(2,2-dimethylpropyl)-7-oxo-pyrido[2,3-d]pyrimidin-2-yl]amino}ethyl) benzamide] were 146 nM, 134 nM and 1320 nM.

The values are drawn from US12018023B2 (NERVIANO MEDICAL SCIENCES S.R.L., priority 2018, dated 2024).
